One may read the inhibition as how much of the control response was suppressed. A lower inhibition goes with a weak effect. In general, Ki refers to a dissociation constant, usually derived from enzyme kinetics or from competition with a known ligand. High values mean lower affinity, low ones higher affinity.

In test [1] the target is T1, Alpha-1D adrenergic receptor (Homo sapiens) (UniProt P25100).
T1 sequence (whole entry): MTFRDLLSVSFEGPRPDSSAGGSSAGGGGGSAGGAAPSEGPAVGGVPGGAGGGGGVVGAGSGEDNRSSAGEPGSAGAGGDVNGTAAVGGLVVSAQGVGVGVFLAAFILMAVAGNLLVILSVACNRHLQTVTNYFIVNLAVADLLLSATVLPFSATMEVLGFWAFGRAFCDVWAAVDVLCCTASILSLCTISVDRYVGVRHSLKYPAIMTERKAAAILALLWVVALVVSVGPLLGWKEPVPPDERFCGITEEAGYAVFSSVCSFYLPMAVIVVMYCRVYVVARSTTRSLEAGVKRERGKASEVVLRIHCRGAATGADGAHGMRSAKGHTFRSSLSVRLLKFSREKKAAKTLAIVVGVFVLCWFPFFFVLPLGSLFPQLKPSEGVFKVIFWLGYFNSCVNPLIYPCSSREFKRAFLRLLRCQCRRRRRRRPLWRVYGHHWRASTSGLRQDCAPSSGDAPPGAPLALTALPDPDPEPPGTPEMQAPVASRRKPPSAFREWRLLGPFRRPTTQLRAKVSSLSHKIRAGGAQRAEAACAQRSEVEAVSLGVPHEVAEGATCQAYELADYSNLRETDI
Briefly: Inhibition of Alpha-1D adrenergic receptor at 10 uM.

Test [2] addresses Alpha-2C adrenergic receptor (Homo sapiens) (UniProt P18825). Briefly: Inhibition of Alpha-2C adrenergic receptor at 10 uM.
In another test the target is D(1B) dopamine receptor (Homo sapiens, UniProt P21918). Briefly: Inhibition of dopamine D5 receptor at 10 uM.
Chain of D(1B) dopamine receptor (P21918 whole entry): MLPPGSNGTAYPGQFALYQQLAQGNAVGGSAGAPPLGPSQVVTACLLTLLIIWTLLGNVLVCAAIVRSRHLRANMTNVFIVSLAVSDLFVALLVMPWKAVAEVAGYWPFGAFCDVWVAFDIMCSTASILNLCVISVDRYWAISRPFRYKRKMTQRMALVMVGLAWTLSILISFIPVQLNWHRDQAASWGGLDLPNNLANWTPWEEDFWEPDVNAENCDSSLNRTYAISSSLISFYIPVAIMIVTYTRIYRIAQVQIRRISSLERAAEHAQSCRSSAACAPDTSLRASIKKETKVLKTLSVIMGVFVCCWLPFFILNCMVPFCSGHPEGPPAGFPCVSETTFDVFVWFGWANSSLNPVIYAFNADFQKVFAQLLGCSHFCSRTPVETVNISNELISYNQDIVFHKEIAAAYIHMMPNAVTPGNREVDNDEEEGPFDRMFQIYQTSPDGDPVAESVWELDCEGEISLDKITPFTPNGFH
Test [3] concerns the target T2, Histamine H1 receptor (Homo sapiens, UniProt P35367). As to the kind of experiment: Inhibition of H1 receptor at 10 uM.
The target of test [4] is T3, 5-hydroxytryptamine receptor 1A (Homo sapiens) (UniProt P08908).
T3 sequence (whole entry): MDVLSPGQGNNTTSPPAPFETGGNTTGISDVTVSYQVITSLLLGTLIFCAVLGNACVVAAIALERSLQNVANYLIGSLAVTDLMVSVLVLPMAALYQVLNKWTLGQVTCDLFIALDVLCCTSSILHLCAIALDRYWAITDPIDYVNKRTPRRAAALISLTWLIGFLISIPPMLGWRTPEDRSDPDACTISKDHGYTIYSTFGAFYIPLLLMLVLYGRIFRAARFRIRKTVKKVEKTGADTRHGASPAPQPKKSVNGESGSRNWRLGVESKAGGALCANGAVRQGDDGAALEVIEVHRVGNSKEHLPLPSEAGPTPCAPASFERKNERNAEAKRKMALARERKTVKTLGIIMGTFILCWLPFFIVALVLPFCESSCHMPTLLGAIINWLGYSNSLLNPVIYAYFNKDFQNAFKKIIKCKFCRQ
As to the kind of experiment: Inhibition of 5HT1A receptor at 10 uM.

The target of test [5] is T4, 5-hydroxytryptamine receptor 2A (Homo sapiens, UniProt P28223). Briefly: Inhibition of 5HT2A receptor at 10 uM.
T4 sequence (P28223 whole entry): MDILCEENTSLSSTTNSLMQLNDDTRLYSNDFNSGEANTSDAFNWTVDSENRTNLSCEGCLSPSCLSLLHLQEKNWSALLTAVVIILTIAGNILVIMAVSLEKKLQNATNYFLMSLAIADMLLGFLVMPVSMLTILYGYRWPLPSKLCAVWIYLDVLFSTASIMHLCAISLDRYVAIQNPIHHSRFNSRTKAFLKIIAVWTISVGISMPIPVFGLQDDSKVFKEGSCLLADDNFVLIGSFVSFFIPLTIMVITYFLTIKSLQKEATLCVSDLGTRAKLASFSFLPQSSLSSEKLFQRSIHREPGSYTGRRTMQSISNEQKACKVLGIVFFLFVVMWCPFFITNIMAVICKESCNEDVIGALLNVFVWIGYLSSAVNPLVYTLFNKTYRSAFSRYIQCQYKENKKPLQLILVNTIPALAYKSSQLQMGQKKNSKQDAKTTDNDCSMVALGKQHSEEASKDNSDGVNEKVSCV
The target in test [6] is T5, 5-hydroxytryptamine receptor 2B (Homo sapiens, UniProt P41595). As to the kind of experiment: Inhibition of 5HT2B receptor at 10 uM.
T5 sequence (P41595 whole entry): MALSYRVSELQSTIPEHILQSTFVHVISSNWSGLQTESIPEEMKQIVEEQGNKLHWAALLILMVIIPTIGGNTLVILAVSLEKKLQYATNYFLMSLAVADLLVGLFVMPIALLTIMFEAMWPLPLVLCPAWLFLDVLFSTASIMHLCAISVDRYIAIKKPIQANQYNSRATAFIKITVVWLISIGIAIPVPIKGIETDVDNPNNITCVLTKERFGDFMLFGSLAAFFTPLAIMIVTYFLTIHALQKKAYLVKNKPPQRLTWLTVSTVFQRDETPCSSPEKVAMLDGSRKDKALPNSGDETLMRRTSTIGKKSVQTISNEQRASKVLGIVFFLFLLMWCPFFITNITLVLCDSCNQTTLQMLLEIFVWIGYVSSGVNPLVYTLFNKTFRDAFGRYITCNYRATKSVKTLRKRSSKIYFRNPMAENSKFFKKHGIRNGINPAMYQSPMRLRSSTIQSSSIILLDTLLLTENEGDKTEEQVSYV
The target in test [7] is T6, 5-hydroxytryptamine receptor 2C (Homo sapiens) (UniProt P28335).
T6 sequence (whole entry): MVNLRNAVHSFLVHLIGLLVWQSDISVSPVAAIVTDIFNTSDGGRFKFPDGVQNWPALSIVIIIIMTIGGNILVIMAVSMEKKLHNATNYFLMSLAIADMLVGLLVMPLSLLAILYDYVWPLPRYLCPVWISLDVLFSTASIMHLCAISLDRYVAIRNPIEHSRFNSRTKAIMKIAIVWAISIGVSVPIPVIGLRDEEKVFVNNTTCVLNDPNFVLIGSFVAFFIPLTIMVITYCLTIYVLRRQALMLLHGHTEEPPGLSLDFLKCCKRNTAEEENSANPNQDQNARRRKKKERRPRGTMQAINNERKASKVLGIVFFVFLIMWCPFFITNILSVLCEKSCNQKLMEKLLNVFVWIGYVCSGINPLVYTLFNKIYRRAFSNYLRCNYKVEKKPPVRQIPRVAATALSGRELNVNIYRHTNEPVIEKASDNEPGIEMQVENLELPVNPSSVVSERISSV
Briefly: Inhibition of 5HT2C receptor at 10 uM.

In test [8] the target is T7, Muscarinic acetylcholine receptor M5 (Homo sapiens) (UniProt P08912).
T7 sequence (whole entry): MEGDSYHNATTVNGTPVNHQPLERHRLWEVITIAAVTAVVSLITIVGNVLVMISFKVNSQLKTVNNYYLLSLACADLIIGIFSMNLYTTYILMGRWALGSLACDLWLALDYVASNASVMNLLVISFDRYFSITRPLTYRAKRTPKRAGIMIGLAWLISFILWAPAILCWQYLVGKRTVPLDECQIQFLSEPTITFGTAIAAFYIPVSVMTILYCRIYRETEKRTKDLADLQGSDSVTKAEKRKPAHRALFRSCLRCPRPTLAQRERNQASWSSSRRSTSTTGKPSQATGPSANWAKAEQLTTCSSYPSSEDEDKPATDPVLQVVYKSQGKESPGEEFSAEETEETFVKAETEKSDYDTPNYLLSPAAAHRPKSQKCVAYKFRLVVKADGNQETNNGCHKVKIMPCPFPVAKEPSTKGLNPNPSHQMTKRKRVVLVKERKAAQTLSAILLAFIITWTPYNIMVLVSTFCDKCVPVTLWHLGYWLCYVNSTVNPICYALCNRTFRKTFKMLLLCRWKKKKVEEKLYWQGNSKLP
As to the kind of experiment: Inhibition of muscarinic M5 receptor at 10 uM.

For test [9], the target named is Alpha-2B adrenergic receptor (Homo sapiens) (UniProt P18089). As to the kind of experiment: Inhibition of alpha2B adrenergic receptor at 10 uM.
Chain of Alpha-2B adrenergic receptor (Homo sapiens) (P18089 whole entry): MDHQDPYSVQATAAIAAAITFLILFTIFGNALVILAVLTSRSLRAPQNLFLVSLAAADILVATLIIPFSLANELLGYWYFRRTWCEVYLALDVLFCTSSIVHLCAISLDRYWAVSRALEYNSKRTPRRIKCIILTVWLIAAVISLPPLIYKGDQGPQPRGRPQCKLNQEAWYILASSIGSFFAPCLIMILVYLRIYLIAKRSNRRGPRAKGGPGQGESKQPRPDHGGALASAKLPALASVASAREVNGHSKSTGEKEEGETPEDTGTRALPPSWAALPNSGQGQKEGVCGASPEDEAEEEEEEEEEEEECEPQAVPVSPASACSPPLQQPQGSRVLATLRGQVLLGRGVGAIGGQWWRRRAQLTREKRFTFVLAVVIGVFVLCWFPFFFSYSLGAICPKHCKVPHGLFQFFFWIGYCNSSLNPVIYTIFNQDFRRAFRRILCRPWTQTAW
The species entered for another test is Rattus norvegicus. Briefly: Inhibition of BZP receptor in rat brain. Format: tissue-based. As to conditions: concentration not given here.
For the next test, the target named is D(3) dopamine receptor (Homo sapiens, UniProt P35462). As to the kind of experiment: Inhibition of dopamine D3 receptor at 10 uM.
Test [10] in a line: Inhibition of GABAA receptor at 10 uM.
Another test concerns the target Histamine H2 receptor (Homo sapiens, UniProt P25021). Briefly: Inhibition of H2 receptor at 10 uM.
Test [11] deals with T2, Histamine H1 receptor. Briefly: Inhibition of H1 receptor.
In test [12] the target is T4, 5-hydroxytryptamine receptor 2A. Briefly: Inhibition of 5HT2A receptor.
The target of test [13] is T5, 5-hydroxytryptamine receptor 2B. As to the kind of experiment: Inhibition of 5HT2B receptor.
The target of test [14] is Muscarinic acetylcholine receptor M2 (Homo sapiens, UniProt P08172). As to the kind of experiment: Inhibition of muscarinic M2 receptor.
Chain of Muscarinic acetylcholine receptor M2 (P08172 whole entry): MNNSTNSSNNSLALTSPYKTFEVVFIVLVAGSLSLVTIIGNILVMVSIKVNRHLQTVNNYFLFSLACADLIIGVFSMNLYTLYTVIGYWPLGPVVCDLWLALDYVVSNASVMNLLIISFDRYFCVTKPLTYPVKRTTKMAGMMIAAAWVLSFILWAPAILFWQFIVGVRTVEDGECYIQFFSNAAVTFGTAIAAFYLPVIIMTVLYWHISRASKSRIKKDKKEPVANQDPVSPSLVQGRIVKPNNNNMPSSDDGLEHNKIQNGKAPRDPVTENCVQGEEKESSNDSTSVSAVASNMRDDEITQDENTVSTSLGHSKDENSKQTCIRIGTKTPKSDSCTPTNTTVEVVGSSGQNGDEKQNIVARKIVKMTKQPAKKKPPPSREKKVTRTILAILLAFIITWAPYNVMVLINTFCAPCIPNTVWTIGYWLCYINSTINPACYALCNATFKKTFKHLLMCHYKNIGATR
Test [15] addresses Muscarinic acetylcholine receptor M3 (Homo sapiens, UniProt P20309). As to the kind of experiment: Inhibition of muscarinic M3 receptor.
For test [16], the target named is Muscarinic acetylcholine receptor M5 (Homo sapiens, UniProt P08912). Briefly: Inhibition of muscarinic M5 receptor.
In test [17] the target is 5-hydroxytryptamine receptor 6 (Homo sapiens, UniProt P50406). As to the kind of experiment: Inhibition of 5HT6 receptor.
Chain of 5-hydroxytryptamine receptor 6 (P50406 whole entry): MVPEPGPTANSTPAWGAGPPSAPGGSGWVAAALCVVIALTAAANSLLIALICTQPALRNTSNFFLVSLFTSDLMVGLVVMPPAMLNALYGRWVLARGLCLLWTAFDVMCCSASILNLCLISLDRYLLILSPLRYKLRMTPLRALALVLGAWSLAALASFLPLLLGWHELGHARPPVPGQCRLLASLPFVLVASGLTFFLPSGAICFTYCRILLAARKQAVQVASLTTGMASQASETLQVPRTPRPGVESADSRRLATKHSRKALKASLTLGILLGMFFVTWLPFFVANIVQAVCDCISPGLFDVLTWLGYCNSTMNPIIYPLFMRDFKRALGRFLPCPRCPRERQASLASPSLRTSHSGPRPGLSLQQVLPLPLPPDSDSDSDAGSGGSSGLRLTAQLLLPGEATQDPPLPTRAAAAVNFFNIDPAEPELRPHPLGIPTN
For test [18], the target named is Muscarinic acetylcholine receptor M4 (Homo sapiens, UniProt P08173). As to the kind of experiment: Inhibition of muscarinic M4 receptor.
Chain of Muscarinic acetylcholine receptor M4 (P08173 whole entry): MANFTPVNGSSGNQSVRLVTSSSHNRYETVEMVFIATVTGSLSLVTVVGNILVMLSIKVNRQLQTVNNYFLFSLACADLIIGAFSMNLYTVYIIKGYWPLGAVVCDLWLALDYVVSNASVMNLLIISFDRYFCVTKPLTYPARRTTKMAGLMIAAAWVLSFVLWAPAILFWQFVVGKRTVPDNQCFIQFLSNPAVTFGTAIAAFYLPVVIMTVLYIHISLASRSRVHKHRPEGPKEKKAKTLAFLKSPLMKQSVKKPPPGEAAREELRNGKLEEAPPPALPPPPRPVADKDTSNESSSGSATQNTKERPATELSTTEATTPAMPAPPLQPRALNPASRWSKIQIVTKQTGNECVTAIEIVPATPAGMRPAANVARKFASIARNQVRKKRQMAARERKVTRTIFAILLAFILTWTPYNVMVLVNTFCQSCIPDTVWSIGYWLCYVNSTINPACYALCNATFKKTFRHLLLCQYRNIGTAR
The target in test [19] is Alpha-2C adrenergic receptor (Homo sapiens, UniProt P18825). As to the kind of experiment: Inhibition of Alpha-2C adrenergic receptor.
Chain of Alpha-2C adrenergic receptor (P18825 whole entry): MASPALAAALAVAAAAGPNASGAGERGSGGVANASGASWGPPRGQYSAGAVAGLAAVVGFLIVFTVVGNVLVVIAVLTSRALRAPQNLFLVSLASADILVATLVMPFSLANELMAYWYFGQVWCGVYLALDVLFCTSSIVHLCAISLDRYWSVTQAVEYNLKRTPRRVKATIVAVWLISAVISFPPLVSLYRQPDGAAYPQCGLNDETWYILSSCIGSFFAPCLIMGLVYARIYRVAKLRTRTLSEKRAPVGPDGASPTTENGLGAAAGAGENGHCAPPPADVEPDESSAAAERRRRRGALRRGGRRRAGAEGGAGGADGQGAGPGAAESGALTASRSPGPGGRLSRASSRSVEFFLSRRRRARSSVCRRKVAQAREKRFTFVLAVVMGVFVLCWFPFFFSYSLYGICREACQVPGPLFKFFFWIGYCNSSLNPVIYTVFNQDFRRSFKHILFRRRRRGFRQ

T2 sequence (P35367 whole entry): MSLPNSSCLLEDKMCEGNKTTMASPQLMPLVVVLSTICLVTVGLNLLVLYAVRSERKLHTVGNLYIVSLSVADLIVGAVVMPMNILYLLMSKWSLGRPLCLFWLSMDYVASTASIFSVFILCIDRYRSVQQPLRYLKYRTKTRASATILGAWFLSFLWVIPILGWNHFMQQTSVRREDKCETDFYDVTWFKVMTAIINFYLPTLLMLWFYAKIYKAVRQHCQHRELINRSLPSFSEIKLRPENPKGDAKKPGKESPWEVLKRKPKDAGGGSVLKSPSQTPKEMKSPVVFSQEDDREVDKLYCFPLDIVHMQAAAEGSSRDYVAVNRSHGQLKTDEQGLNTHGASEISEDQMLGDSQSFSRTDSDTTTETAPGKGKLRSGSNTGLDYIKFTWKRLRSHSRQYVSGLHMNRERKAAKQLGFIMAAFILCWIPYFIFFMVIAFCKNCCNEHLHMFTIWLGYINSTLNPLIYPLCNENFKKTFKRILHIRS
Chain of Alpha-2C adrenergic receptor (Homo sapiens) (P18825 whole entry): as the sequence (P18825 whole entry) above
Chain of Muscarinic acetylcholine receptor M3 (P20309 whole entry): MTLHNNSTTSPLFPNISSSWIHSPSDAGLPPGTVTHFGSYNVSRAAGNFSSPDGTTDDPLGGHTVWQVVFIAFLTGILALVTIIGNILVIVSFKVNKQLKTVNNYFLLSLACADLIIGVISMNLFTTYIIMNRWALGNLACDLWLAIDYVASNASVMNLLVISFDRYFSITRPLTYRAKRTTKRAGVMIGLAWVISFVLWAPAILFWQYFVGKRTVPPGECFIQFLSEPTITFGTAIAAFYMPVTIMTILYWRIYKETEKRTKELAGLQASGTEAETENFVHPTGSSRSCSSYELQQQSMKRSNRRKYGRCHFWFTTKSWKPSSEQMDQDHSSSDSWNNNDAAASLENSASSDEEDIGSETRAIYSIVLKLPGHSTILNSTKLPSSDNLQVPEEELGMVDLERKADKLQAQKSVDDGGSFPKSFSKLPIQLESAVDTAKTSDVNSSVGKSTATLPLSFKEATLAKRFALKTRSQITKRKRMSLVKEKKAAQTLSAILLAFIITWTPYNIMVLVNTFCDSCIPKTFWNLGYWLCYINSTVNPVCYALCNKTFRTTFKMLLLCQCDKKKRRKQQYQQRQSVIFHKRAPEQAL

As for `Fc1cccc(CN[C@H]2C3C4CC5C6C4CC3C6C52)c1` (stereo partly drawn), the inhibition (in [1]; in test [2]; at D(1B) dopamine receptor; against Histamine H1 receptor [3]; in [4]; in test [5]) was under 50% in each case. Also, the inhibition in test [6], in test [7] and in test [8] was under 50% each time.
With `CN(Cc1cccc(F)c1)[C@H]1C2C3CC4C5C3CC2C5C41` (stereo partly drawn), the inhibition (in test [1]; in test [9]; in test [2]; in the test filed under Rattus norvegicus; on D(3) dopamine receptor; in test [10]) was under 50% each time. The inhibition (against Histamine H2 receptor; in test [4]; in test [5]; in test [6]; in test [7]; in test [8]) was under 50% in each case.
For the molecule `Fc1cccc(CCN[C@H]2C3C4CC5C6C4CC3C6C52)c1` (stereo partly drawn), the inhibition (in [1]; against D(1B) dopamine receptor; in test [4]; in [7]) was under 50% each time. For the same molecule, the Ki at Histamine H1 receptor [11] is 2380 nM; in test [12], 6020 nM; in [13] it was 6980 nM; in [14], 2290 nM; in test [15], 1390 nM; in test [16], 1830 nM. In addition, the inhibition constant Ki in test [17] is over 10000 nM; in test [18] it was 705 nM.
Take `CN(CCc1cccc(F)c1)[C@H]1C2C3CC4C5C3CC2C5C41` (stereo partly drawn): the inhibition (in test [1]; in test [9]; in the test filed under Rattus norvegicus; in test [10]; in test [4]; in test [7]) was under 50% in each case. This molecule came in with an inhibition in [8] of under 50%. Moreover, the inhibitory constant (Ki) in test [19] is 2070 nM; in [12], over 10000 nM; in test [13] it was 6090 nM.

These data come from ChEMBL document CHEMBL1641373, “Trishomocubane as a scaffold for the development of selective dopamine transporter (DAT) ligands” (Bioorg Med Chem Lett, 2011).
